From patent US8134006B2, “Dialkylphenyl compounds having β2 adrenergic receptor agonist and muscarinic receptor antagonist activity” (Theravance, Inc., priority 2006, dated 2012)

Assays:
[1] = test system: acetylcholine or histamine bronchoconstriction; assay: Plethysmograph guinea pig assay for bronchoprotective efficacy and duration; conditions: doses ranging from 3 μg/mL to 300 μg/mL, inhalation
Experimental: In this assay, the bronchoprotective efficacy and duration of test compounds was determined using a guinea pig assay.
Groups of 6 male guinea pigs (Duncan-Hartley (HsdPoc:DH) Harlan, Madison, Wis.) weighing between 250 and 350 g were individually identified by cage cards. Throughout the study, animals were allowed access to food and water ad libitum. Test compounds were administered via inhalation over 10 minutes in a whole-body exposure dosing chamber (R&S Molds, San Carlos, Calif.). The dosing chambers were arranged so that an aerosol was simultaneously delivered to 6 individual chambers from a central manifold. Guinea pigs were exposed to an aerosol of a test compound or vehicle (WFI). […] The gas flow through the nebulizer at this operating pressure was approximately 3 L per minute. […] This value was measured gravimetrically by comparing pre- and post-nebulization weights of the filled nebulizer. […]
The pulmonary evaluation was initiated after determining that baseline values were within the range of 0.3 to 0.9 mL per cm H2O for compliance and within the range of 0.1 to 0.199 cm H2O per mL per second for resistance. […] The changes in volume over time that occurred within the plethysmograph with each breath were measured via a Buxco pressure transducer. By integrating this signal over time, a measurement of flow was calculated for each breth. […]

cM5 receptor = cM5 receptor (UniProt Q5IS53); assay: Blockade of agonist-mediated calcium release via FLIPR; type: cell-based; conditions: CHO cells expressing cM5, read-out: Kobs
Sequence of cM5 receptor (Q5IS53 whole entry): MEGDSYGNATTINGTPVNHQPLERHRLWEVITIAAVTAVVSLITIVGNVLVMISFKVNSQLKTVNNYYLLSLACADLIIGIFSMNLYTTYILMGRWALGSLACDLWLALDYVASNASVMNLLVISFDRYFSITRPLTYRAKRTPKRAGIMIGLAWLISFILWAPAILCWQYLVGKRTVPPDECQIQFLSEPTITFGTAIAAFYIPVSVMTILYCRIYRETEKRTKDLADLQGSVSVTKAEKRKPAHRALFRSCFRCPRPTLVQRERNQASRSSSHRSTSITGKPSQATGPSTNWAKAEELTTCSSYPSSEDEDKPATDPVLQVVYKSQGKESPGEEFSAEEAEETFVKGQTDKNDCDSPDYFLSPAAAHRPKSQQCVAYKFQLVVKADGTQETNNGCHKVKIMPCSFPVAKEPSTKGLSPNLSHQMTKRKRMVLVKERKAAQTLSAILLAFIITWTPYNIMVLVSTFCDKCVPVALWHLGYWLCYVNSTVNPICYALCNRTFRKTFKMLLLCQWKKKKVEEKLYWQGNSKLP
Experimental: In this functional assay, the functional potency of a test compound as an antagonist of hM1, hM3 and […] receptors was determined by measuring the ability of the test compound to inhibit agonist-mediated increases in intracellular calcium.
CHO cells stably expressing the receptors were seeded into 96-well FLIPR plates the night before the assay was done. Seeded cells were washed twice with FLIPR buffer (10 mM HEPES, pH 7.4, 2 mM calcium chloride, 2.5 mM probenecid in Hank's Buffered Salt Solution (HBSS) without calcium and magnesium) using Cellwash (MTX Labsystems, Inc.) to remove growth media. After washing, each well contained 50 μL of FLIPR buffer. […]
The dose-dependent stimulation of intracellular Ca^2+ release for oxotremorine was determined so that the test compound could be measured against oxotremorine stimulation at an EC90 concentration. […]
The parameters used for the FLIPR were: exposure length of 0.4 seconds, laser strength of 0.5 watts, excitation wavelength of 488 nm, and emission wavelength of 550 nm. Baseline was determined by measuring the change in fluorescence for 10 seconds prior to addition of oxotremorine. Following oxotremorine stimulation, the FLIPR continuously measured the change of fluorescence every 0.5 to 1 second for 1.5 minutes to capture the maximum fluorescence change. […]

[2] = biological target: T1, human β2 adrenergic receptor (Homo sapiens, UniProt P07550); assay: Whole-cell cAMP Flashplate assay with lung epithelial cell line (BEAS-2B) endogenously expressing β2 receptor; type: cell-based; conditions: BEAS-2B cells, compared with full β2 agonist isoproterenol (1.0)
T1 construct: a cell line expressing endogenous levels of the β2 adrenergic receptor; host or cells: BEAS-2B human lung epithelial cell line
T1 sequence (P07550 whole entry): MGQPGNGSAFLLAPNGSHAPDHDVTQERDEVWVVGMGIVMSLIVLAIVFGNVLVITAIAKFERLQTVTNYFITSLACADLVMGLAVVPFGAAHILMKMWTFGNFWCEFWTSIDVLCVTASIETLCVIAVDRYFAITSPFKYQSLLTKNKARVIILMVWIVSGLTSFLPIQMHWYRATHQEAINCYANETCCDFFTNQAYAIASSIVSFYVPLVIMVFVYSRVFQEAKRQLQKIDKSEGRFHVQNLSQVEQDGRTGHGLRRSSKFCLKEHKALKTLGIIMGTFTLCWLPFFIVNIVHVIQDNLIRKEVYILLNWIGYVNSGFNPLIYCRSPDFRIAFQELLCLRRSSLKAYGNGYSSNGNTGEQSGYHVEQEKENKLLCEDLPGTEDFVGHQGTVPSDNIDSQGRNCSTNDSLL
Experimental: In this assay, the agonist potency and intrinsic activity of a test compound were determined using a cell line expressing endogenous levels of the β2 adrenergic receptor.
On the day of the assay, cells were rinsed with PBS, lifted by scraping with 5 mM EDTA in PBS, and counted. Cells were pelleted by centrifugation at 1,000 rpm and re-suspended in stimulation buffer pre-warmed to 37° C. at a final concentration of 600,000 cells/mL. Cells were used at a final concentration of 100,000 to 120,000 cells/well in this assay. […] Plates were sealed, incubated over night at 4° C. and counted the next morning in a Topcount scintillation counter (Packard BioScience Co., Meriden, Conn.). […] Data were analyzed by nonlinear regression analysis with the GraphPad Prism Software package (GraphPad Software, Inc., San Diego, Calif.) using the 4-parameter model for sigmoidal dose-response.

bronchoconstriction = assay: Einthoven assay, duration of bronchoprotection; conditions: inhalation
Experimental: (§1) In this assay, the bronchoprotective efficacy and duration of test compounds were determined using guinea pigs. […] In this assay, changes in ventilation pressure serve as a surrogate measure of airway resistance. Following pre-treatment with a test compound, muscarinic antagonist potency was determined using bronchoconstrictor dose-response curves to intravenous methacholine in the presence of propranolol. Similarly, β2 agonist bronchoprotective potency was determined using histamine. Combined bronchoprotective potency was determined using methacholine in the absence of propranolol.
(§2) The assay was conducted using male Duncan-Hartley guinea pigs (Harlan, Indianapolis, Ind.), weighing between 250 and 400 g. A test compound or vehicle (i.e., sterile water) was dosed by inhalation (IH) over a 10 minute time period in a whole body exposure dosing chamber (R+S Molds, San Carlos, Calif.) using 5 mL of dosing solution. […] Pulmonary function was evaluated at various time points after inhalation dosing.
(§3) The trachea was then dissected free and cannulated with a 14G needle (#NE-014, Small Parts, Miami Lakes, Fla.). […] Body temperature was maintained at 37° C. using a heating pad. […] The changes in VP were recorded on a Biopac Windows data collection interface. […] Changes in VP were recorded using the Acknowledge Data Collection Software (Santa Barbara, Calif.). […]
(§4) Change in VP was measured in cm of water. […]

[3] = test system: histamine-induced bronchoconstriction; assay: Einthoven assay, bronchoprotective efficacy against histamine; conditions: 1.5 hours post-dose, inhalation
Experimental: as §1, §2, §3, §4

[4] = test system: methacholine-induced bronchoconstriction; assay: Einthoven assay, bronchoprotective efficacy against methacholine; conditions: 1.5 hours post-dose, inhalation
Experimental: as §1, §2, §3, §4

SMILES: O=CNc1cc([C@@H](O)CNCc2ccc(NC(=O)CCN3CCC(OC(=O)Nc4ccccc4-c4ccccc4)CC3)cc2)ccc1O [compound 50]
- bronchoprotection at 24 hours post-dose [1]: no significant bronchoprotection

SMILES: Cc1cc(NC(=O)CCN2CCC(OC(=O)Nc3ccccc3-c3ccccc3)CC2)c(C)cc1CNC[C@H](O)c1ccc(O)c(NC=O)c1 [compound IIa, biphenyl-2-ylcarbamic acid 1-[2-(4-{[(R)-2-(3-formylamino-4-hydroxyphenyl)-2-hydroxyethylamino]methyl}-2,5-dimethylphenylcarbamoyl)ethyl]piperidin-4-yl ester]
- Ki (cM5 receptor): < 0.01 µM
- intrinsic activity [2]: greater than 0.3
- duration of significant bronchoprotection (bronchoconstriction; single sub-maximal dose 100 μg/mL): up to 72 hours
- ID50 [3]: less than 50 μg/mL
- ID50 [4]: less than 50 μg/mL

SMILES: C[N+]1(C)[C@@H]2C[C@@H](OC(=O)C(O)(c3cccs3)c3cccs3)C[C@H]1[C@@H]1O[C@@H]12 [tiotropium, reference compound]
- duration of significant bronchoprotection (bronchoconstriction; 10 μg/mL): greater than 72 hours
